Experimental data as given in the supplement of paper PMC4862054.

Key:
Conditions in all cases: incubation time: 72 h
BT-474 [1] = experiment: normalised response (% of control), CellTox Green; higher = less cell death (100 = DMSO, 0 = benzethonium chloride kill control)
Outline: (§1)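 Compound was dispensed into 384-well plates at 5 concentrations in 10-fold steps spanning a 10,000-fold range specific to that compound. Breast cancer cell lines were added as 20 µl suspension and left for 72 h before CellTox Green fluorescence (485/520 nm) and then CellTiter-Glo luminescence, read after 10 min at room temperature. Each reported value is the normalised signal at one concentration, with 0.1 % DMSO set at 100 and a positive kill control at 0 on each plate.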

MFM-223 = experiment: as above
Outline: as §1

CAL-51 [2] = experiment: as above
Outline: as §1

HCC1937 = experiment: as above
Outline: as §1

BT-549 [3] = experiment: as above
Outline: as §1

HCC1599 [4] = experiment: as above
Outline: as §1

MDA-MB-436 [5] = experiment: as above
Outline: as §1

MDA-MB-468 = experiment: as above
Outline: as §1

MCF-10A [6] = experiment: as above
Outline: as §1

DU-4475 [7] = experiment: as above
Outline: as §1

CAL-120 [8] = experiment: as above
Outline: as §1

MDA-MB-453 [9] = experiment: as above
Outline: as §1

HCC1143 [10] = experiment: as above
Outline: as §1

Hs578T [11] = experiment: as above
Outline: as §1

MDA-MB-231 = experiment: as above
Outline: as §1

CAL-148 = experiment: as above
Outline: as §1

CAL-85-1 [12] = experiment: as above
Outline: as §1

HDQ-P1 [13] = experiment: as above
Outline: as §1

BT-474 [14] = experiment: normalised response (% of control), CellTiter-Glo; higher = more viable cells (100 = DMSO, 0 = benzethonium chloride kill control)
Outline: as §1

CAL-51 [15] = experiment: as above
Outline: as §1

BT-549 [16] = experiment: as above
Outline: as §1

HCC1599 [17] = experiment: as above
Outline: as §1

MDA-MB-436 [18] = experiment: as above
Outline: as §1

MCF-10A [19] = experiment: as above
Outline: as §1

DU-4475 [20] = experiment: as above
Outline: as §1

CAL-120 [21] = experiment: as above
Outline: as §1

MDA-MB-453 [22] = experiment: as above
Outline: as §1

HCC1143 [23] = experiment: as above
Outline: as §1

Hs578T [24] = experiment: as above
Outline: as §1

CAL-85-1 [25] = experiment: as above
Outline: as §1

HDQ-P1 [26] = experiment: as above
Outline: as §1

Compound NC1(c2ccc(-c3nc4ccn5c(=O)[nH]nc5c4cc3-c3ccccc3)cc2)CCC1 [MK-2206] (1000 nM) has a normalised response (BT-474 [1]) of 99.2%, a normalised response (MFM-223) of 95.9% and a normalised response (CAL-51 [2]) of 98.1%. It also gave a normalised response (HCC1937) of 108%, a normalised response (BT-549 [3]) of 122% and a normalised response (HCC1599 [4]) of 117%. It also gave a normalised response (MDA-MB-436 [5]) of 112%, a normalised response (MDA-MB-468) of 147% and a normalised response (MCF-10A [6]) of 104%. For the same compound, the normalised response (DU-4475 [7]) was 109%, the normalised response (CAL-120 [8]) was 97.8% and the normalised response (MDA-MB-453 [9]) was 96.7%. For the same compound, the normalised response (HCC1143 [10]) was 131%, the normalised response (Hs578T [11]) was 82.1% and the normalised response (MDA-MB-231) was 106%. The normalised response (CAL-148) was 11.1%, the normalised response (CAL-85-1 [12]) was 69% and the normalised response (HDQ-P1 [13]) was 109%. For the same compound, the normalised response (BT-474 [14]) was 95.4%, the normalised response (CAL-51 [15]) was 84.2% and the normalised response (BT-549 [16]) was 69.3%. The normalised response (HCC1599 [17]) was 72.6%, the normalised response (MDA-MB-436 [18]) was 98.2% and the normalised response (MCF-10A [19]) was 83.3%. For the same compound, the normalised response (DU-4475 [20]) was 87.3%, the normalised response (CAL-120 [21]) was 92.5% and the normalised response (MDA-MB-453 [22]) was 36.6%. The normalised response (HCC1143 [23]) was 84%, the normalised response (Hs578T [24]) was 87.2% and the normalised response (CAL-85-1 [25]) was 86.1%. The normalised response (HDQ-P1 [26]) was 81.4%.

O=C(c1cc(Cc2n[nH]c(=O)c3ccccc23)ccc1F)N1CCN(C(=O)C2CC2)CC1 [Olaparib] (10000 nM) gave a normalised response (BT-474 [1]) of 96.4%, a normalised response (MFM-223) of 102% and a normalised response (CAL-51 [2]) of 44.8%. The normalised response (HCC1937) was 99.8%, the normalised response (BT-549 [3]) was 102% and the normalised response (HCC1599 [4]) was 99.2%. For the same compound, the normalised response (MDA-MB-436 [5]) was 44%, the normalised response (MDA-MB-468) was 112% and the normalised response (MCF-10A [6]) was 94.8%. The normalised response (DU-4475 [7]) was 98.5%, the normalised response (CAL-120 [8]) was 94.8% and the normalised response (MDA-MB-453 [9]) was 109%. The normalised response (HCC1143 [10]) was 94.2%, the normalised response (Hs578T [11]) was 96.5% and the normalised response (MDA-MB-231) was 35.9%. It also gave a normalised response (CAL-148) of 75.3%, a normalised response (CAL-85-1 [12]) of 105% and a normalised response (BT-474 [14]) of 67.5%. It also gave a normalised response (CAL-51 [15]) of 66.1%, a normalised response (BT-549 [16]) of 78.1% and a normalised response (HCC1599 [17]) of 95.3%. It also gave a normalised response (MDA-MB-436 [18]) of 62.2%, a normalised response (MCF-10A [19]) of 92.8% and a normalised response (DU-4475 [20]) of 85.7%. The normalised response (CAL-120 [21]) was 82.3%, the normalised response (MDA-MB-453 [22]) was 144% and the normalised response (HCC1143 [23]) was 87.3%. The normalised response (Hs578T [24]) was 84.6%, the normalised response (CAL-85-1 [25]) was 87.5% and the normalised response (HDQ-P1 [26]) was 87.8%.

COc1cc2c(N3CCN(C(=O)Nc4ccc(OC(C)C)cc4)CC3)ncnc2cc1OCCCN1CCCCC1 [Tandutinib] (1000 nM) gave a normalised response (BT-474 [1]) of 100%, a normalised response (MFM-223) of 89% and a normalised response (CAL-51 [2]) of 98.5%. The normalised response (HCC1937) was 93.2%, the normalised response (BT-549 [3]) was 108% and the normalised response (HCC1599 [4]) was 100%. For the same compound, the normalised response (MDA-MB-436 [5]) was 86.9%, the normalised response (MDA-MB-468) was 120% and the normalised response (MCF-10A [6]) was 93.5%. The normalised response (DU-4475 [7]) was 98.6%, the normalised response (CAL-120 [8]) was 96.2% and the normalised response (MDA-MB-453 [9]) was 101%. The normalised response (HCC1143 [10]) was 114%, the normalised response (Hs578T [11]) was 122% and the normalised response (MDA-MB-231) was 99.1%. It also gave a normalised response (CAL-148) of 93.5%, a normalised response (CAL-85-1 [12]) of 105% and a normalised response (HDQ-P1 [13]) of 97.1%. It also gave a normalised response (BT-474 [14]) of 97.7%, a normalised response (CAL-51 [15]) of 117% and a normalised response (BT-549 [16]) of 102%. It also gave a normalised response (HCC1599 [17]) of 106%, a normalised response (MDA-MB-436 [18]) of 109% and a normalised response (MCF-10A [19]) of 87%. The normalised response (DU-4475 [20]) was 97.7%, the normalised response (CAL-120 [21]) was 106% and the normalised response (MDA-MB-453 [22]) was 99.1%. It also gave a normalised response (HCC1143 [23]) of 95.7%, a normalised response (Hs578T [24]) of 92.3% and a normalised response (CAL-85-1 [25]) of 98%. For the same compound, the normalised response (HDQ-P1 [26]) was 99.1%.

Compound C[C@@H](C(=O)O)c1ccc(-c2ccccc2)c(F)c1 [Tarenflurbil] (10000 nM) has a normalised response (BT-474 [1]) of 88.4%, a normalised response (MFM-223) of 92.6% and a normalised response (CAL-51 [2]) of 113%. The normalised response (HCC1937) was 109%, the normalised response (BT-549 [3]) was 101% and the normalised response (HCC1599 [4]) was 102%. For the same compound, the normalised response (MDA-MB-436 [5]) was 90%, the normalised response (MDA-MB-468) was 153% and the normalised response (DU-4475 [7]) was 101%. It also gave a normalised response (CAL-120 [8]) of 91.1%, a normalised response (MDA-MB-453 [9]) of 103% and a normalised response (HCC1143 [10]) of 121%. The normalised response (MDA-MB-231) was 99.9%, the normalised response (CAL-148) was 101% and the normalised response (CAL-85-1 [12]) was 110%. It also gave a normalised response (HDQ-P1 [13]) of 110%, a normalised response (BT-474 [14]) of 95.2% and a normalised response (CAL-51 [15]) of 120%. It also gave a normalised response (BT-549 [16]) of 99%, a normalised response (HCC1599 [17]) of 92.4% and a normalised response (MDA-MB-436 [18]) of 108%. The normalised response (MCF-10A [19]) was 99.4%, the normalised response (DU-4475 [20]) was 96.7% and the normalised response (CAL-120 [21]) was 104%. The normalised response (MDA-MB-453 [22]) was 93.7%, the normalised response (HCC1143 [23]) was 98.7% and the normalised response (Hs578T [24]) was 97.5%. It also gave a normalised response (CAL-85-1 [25]) of 98.8% and a normalised response (HDQ-P1 [26]) of 98.5%.
